Results on 1 compound are retold here after patent US9879043B1, “Synthesis of non-natural cofactor analogs of S-adenosyl-L-methionine using methionine adenosyltransferase” (University of Kentucky Research Foundation, priority 2013, dated 2018).

Each structure is given as a SMILES string. Where two headings read alike, the source gives them in different places.

For test [1], the target named is T1, Sulfolobus solfataricus MAT (sMAT) (Saccharolobus solfataricus, UniProt Q980S9).
T1 sequence (Q980S9 1-404): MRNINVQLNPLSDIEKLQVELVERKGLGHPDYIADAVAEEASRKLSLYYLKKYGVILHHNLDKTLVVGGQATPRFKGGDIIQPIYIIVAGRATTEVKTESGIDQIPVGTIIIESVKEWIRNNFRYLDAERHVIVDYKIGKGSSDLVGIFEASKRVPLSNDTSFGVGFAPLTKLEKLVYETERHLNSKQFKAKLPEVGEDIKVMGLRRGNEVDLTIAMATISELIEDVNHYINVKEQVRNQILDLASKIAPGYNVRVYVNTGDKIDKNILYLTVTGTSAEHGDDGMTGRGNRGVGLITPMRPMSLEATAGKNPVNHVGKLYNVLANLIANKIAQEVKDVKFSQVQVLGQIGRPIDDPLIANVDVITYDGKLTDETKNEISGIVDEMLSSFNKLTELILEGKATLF
In words: Kinetic measurements of sMAT reactions. The test is classed as biochemical. Here is the method:
Kinetic Measurements of sMAT Reactions: Pseudo first-order kinetics was assessed in triplicate under saturating ATP (2.5 mM) and variable L-methionine/L-ethionine (0.007, 0.013, 0.033, 0.066, 0.133, 0.333, 0.66, 1.33 mM) and saturating L-methionine/L-ethionine (2.5 mM) and variable ATP (0.013, 0.033, 0.066, 0.133, 0.333, 0.66, 1.33 mM) concentrations. Reactions were performed in buffer containing 25 mM Tris pH 8.0, 40 mM KCl and 5 mM MgCl2, and 0.5 μg purified sMAT was added and incubated at 37° C. or 65° C. in a final volume of 20 μL. Reaction products were analyzed using RP-HPLC method above and product quantification was carried out using standard curve generated by commercial SAM. The kinetic curves were fit to the Michaelis-Menton equation using Prism software.

The target in test [2] is T1, Sulfolobus solfataricus MAT (sMAT). The test is classed as biochemical. As to conditions: 2 mM analog, 1 mM ATP, 5 μM sMAT, pH 8.0, 4 h at 65° C., average of two assays.

With `CCSCC[C@H](N)C(=O)O` [compound 3, (2S)-2-amino-4-(ethylsulfanyl)butanoic acid], the kcat entry in test [1] (37° C. or 65° C., L-methionine versus L-ethionine) was “similar”. In addition, in test [1] (compared to native substrate L-methionine), the Km result was “higher Km values”. Also, the “Percentage Turn-Over (sMAT)” value in test [2] was 84%; in test [2] (listed as ethionine) it was ~100%.
